Each structure is given as a SMILES string. Structures can show the parent of a compound that is named as a salt. Where two headings read alike, the source gives them in different places.

Experiment [1] has as its system fluid secretion caused by the enterotoxin(s) present in the culture filtrate (enteropathogenic strain of E. coli). Briefly: animal or person. The class given is in vivo, Mice.
The subject of a further experiment is E. coli P155. The class given is in vivo, Piglets. Conditions: n = 14.
The test system of experiment [2] is diarrhoea caused by culture filtrate prepared from an enteropathogenic strain of E. coli. As to the kind of experiment: Piglet test: inhibition of scour after oral challenge with E. coli culture filtrate. The class given is in vivo, Piglets. Conditions: scour score over 7 h, hydrochloride salt. As for the experimental part: 2-4 Day old piglets are dosed with the compound orally 45 min prior to oral challenge with 25 ml of culture filtrate prepared from an enteropathogenic strain of E. coli. Control animals receive drug vehicle 45 min prior to challenge with a similar volume of material. Animals are observed for diarrhoea over a 7 hour period and the severity of scour scored on a 0-3 basis for each animal at hourly intervals. The percentage inhibition in treated animals is determined as: [formula]

The test system of experiment [3] is fluid secretion caused by material prepared by cell lysis of an enteropathogenic strain of E. coli. Briefly: Infant rabbit test: inhibition of fluid secretion after oral challenge with E. coli cell lysis material. The class given is in vivo, Rabbits. Conditions: for % Fluid Inhibition: Rabbit, hydrochloride salt. As for the experimental part: Infant rabbits 7-10 days old are dosed with the compound under investigation orally 45 min prior to oral challenge with 50 ml/kg bodyweight of material prepared by cell lysis of an enteropathogenic strain of E. coli. Control animals receive drug vehicle 45 mins prior to challenge with a similar volume of material. 5-7 Hours after oral administration of the challenge the animals are killed and gut weight/remaining bodyweight ratios calculated and the percentage fluid inhibition determined as above.

The subject of experiment [4] is intestinal secretion induced by cholera toxin. The conditions noted are these: alleged in G. N. Mir et al. (1978); cited from earlier work.
[5] abbreviates: Mus musculus, po, 2 h; read-out: % Fluid Inhibition.
The mark [6] stands for this setting: 10 mg/kg oral, 45 min before challenge.

With `Cc1ccc2ccccc2c1CC1=NCCN1` [2-Methyl Naphazoline], in experiment [1] (Mus musculus, po, 2 h), the inhibition in vivo at 20 mg/kg was determined as 82%.

For `CC1(C)S[C@@H]2[C@H](NC(=O)[C@H](N)c3ccc(O)cc3)C(=O)N2[C@H]1C(=O)O` [Amoxycillin], in the experiment with E. coli P155, the “Mean scour score ± S.E.M. (during 6 hrs after treatment)” value was found to be 2.0 ± 0.2.

As to `N=C(N)NC(=O)Cc1c(Cl)cccc1Cl` [BS 100-141, 2,6-dichlorophenylacetylguanidine hydrochloride], the “% Fluid Inhibition” value in experiment [2] (1 mg/kg oral) is given as 76%. Also, the inhibition in vivo at 1 mg/kg in experiment [1] (setting [5]) amounted to 45%.

`Clc1cccc(Cl)c1NC1=NCCN1` [Clonidine]: the “% Fluid Inhibition” value in experiment [2] (0.2 mg/kg oral) was 64%; in experiment [3] (5 mg/kg oral) it was 26%. Also, the inhibition in vivo at 1 mg/kg in experiment [1] (Mus musculus, po, 2 h, read-out: % Fluid Inhibition) is 42%.

For the compound `CNC(=N)NC(=O)Nc1c(C)cccc1C` [Lidamidine], in experiment [3] (50 mg/kg oral), the “% Fluid Inhibition” value is on record as -7%. For the same compound, the “activity in the rabbit test” value in experiment [3] (in words) was “inactive”. Moreover, in experiment [4], the “inhibition of intestinal secretion induced by cholera toxin” value is recorded as “inhibited intestinal secretion induced by cholera toxin”. In experiment [1] (Mus musculus, po, 2 h), this compound came in with an inhibition in vivo at 50 mg/kg of 33%. Further, in experiment [1] (mouse, in vivo), the “activity relative to the Compounds in the mouse test” value is “at least five times less active than the Compounds”.

Take `c1ccc2c(CC3=NCCN3)cccc2c1` [Naphazoline]: the “% Fluid Inhibition” value in experiment [2] (setting [6]) stood at 88%; in experiment [3] (setting [6]), 32%. Moreover, in experiment [1] (Mus musculus, po, 2 h), the inhibition in vivo at 10 mg/kg turned out to be 59%.

`Cc1cc(C(C)(C)C)c(O)c(C)c1CC1=NCCN1` [Oxymetazoline]: the inhibition in vivo at 0.1 mg/kg in experiment [1] (Mus musculus, po, 2 h) amounted to 78%.

For the compound `CCc1cccc(CC)c1NC1=NCCN1` [ST91], the inhibition in vivo at 5 mg/kg in experiment [1] (Mus musculus, po, 2 h) is 56%. The inhibition in vivo at 1 mg/kg in experiment [1] (setting [5]) came to 22%.

In experiment [1] (Mus musculus, po, 2 h), `c1cc2c(c(NC3=NCCN3)c1)CCCC2` [Tramazoline] yielded an inhibition in vivo at 10 mg/kg of 44%.

With `Cc1cc(C(C)(C)C)cc(C)c1CC1=NCCN1` [Xylometazoline], the figures for the “% Fluid Inhibition” value in experiment [2] (2 mg/kg oral) and in experiment [3] (20 mg/kg oral) were 44% and 119%, respectively. This compound also came in with an inhibition in vivo at 8.25 mg/kg in experiment [1] (Mus musculus, po, 2 h) of 44%.

The record behind these values is US4520014A (priority 1979, dated 1985).
